The values that follow come from patent publication US7166456B2, “Microorganism for producing riboflavin and method for producing riboflavin using the same” (CJ Corp., priority 2002, dated 2007).

The subject of assay [1] is Bacillus subtilis CJKB0001 (KCCM-10445). Nature of the assay: Evaluation of resistance against thiaproline (growth on thiaproline-containing minimal medium). It is filed as cell-based. The arrangement: key: +: growth; −: not growth. To be noted: 37° C., 5 days. The procedure: (§1) The Bacillus subtilis AS5 as the parent strain was obtained from BIONOM-S, Ltd. (Obolensk, Moscow, Russia). The Bacillus subtilis AS5 was suspended in phosphate buffer at pH 7.0 or citrate buffer at pH 5.5 to have a cell density of 10^7 to 10^8 cells/ml. A mutation-inducing agent, N-methyl-N′-nitro-N-nitrosoguanidine was added to the suspension until its concentration was 10 to 50 μg/ml. The resultant mixture was incubated at room temperature or 30° C. for 30 to 60 minutes to induce mutation. Then, the mixture was washed three times with 0.85% of saline solution and diluted in an appropriate manner. The diluted solution was plated onto 1.8% agar-containing minimal media with various concentrations of thiaproline and cultured at 37° C. for 5 days to obtain colonies. In this case, the concentration of thiaproline ranged from 0 mg/l to 100 mg/l. The formed colonies were inoculated onto nutrient agar media and cultured at 37° C. for 24 hours. Then, the resultant nutrient cultures were inoculated onto fermentation media and cultured at 37° C. for 4 to 5 days. The highest riboflavin-producing strain was selected.
In this example, in order to evaluate resistance to thiaproline, the Bacillus subtilis CJKB0001 (KCCM-10445) of Example 1 and the Bacillus subtilis AS5 as the parent strain were cultured in various concentrations of thiaproline-containing media. […]

Another assay concerns Bacillus subtilis AS5. Described as above. To be noted: 37° C., 5 days. On the set-up: key to growth of strain: +: growth; −: not growth. It is filed as cell-based. The procedure:
as §1
In this example, in order to evaluate resistance to thiaproline, the Bacillus subtilis CJKB0001 (KCCM-10445) of Example 1 and the Bacillus subtilis AS5 as the parent strain were cultured in various concentrations of thiaproline-containing media. In detail, respective strains were inoculated onto thiaproline-containing media as shown in Table 1 and cultured at 37° C. for 5 days. In this case, the concentration of thiaproline ranged from 0 to 100 mg/l.

The structures appear in SMILES notation.

Turning to `O=C(O)[C@@H]1CSCN1` [thiaproline], the growth of strain result in assay [1] (70 mg/l thiaproline) is “+”; in assay [1] (100 mg/l thiaproline), “−”; with Bacillus subtilis AS5 (40 mg/l thiaproline), “+”; in the assay on Bacillus subtilis AS5 (50 mg/l thiaproline), “−”; in the assay with Bacillus subtilis AS5 (70 mg/l thiaproline) it was “−”; in the assay with Bacillus subtilis AS5 (100 mg/l thiaproline), “−”. In the assay on Bacillus subtilis AS5 (thiaproline-containing medium), the “thiaproline concentration at which the strain cannot grow” value was “more than 40 mg/l”.
